Measurements as given in US20140107218A1, “METHODS FOR MAINTAINING EYE HEALTH AND AMELIORATING OPTHALMIC MALADIES IN ANIMALS” (NESTEC SA, priority 2012, published 2014).

Test system: rabbit lenses
Assay: Calcium-induced lens opacification in cultured rabbit lenses, transparency evaluation
Assay type: cell-based
Settings: 20 mM CaCl2 plus polyamine 100 mM; for Percent Light Transmittance After Treatments (Average): 72 hours of treatment, absorbance at 394 nm, triplicate, Control 73.3, Ca alone 47.3; for Effect on calcium-induced lens opacification (in words): 72 hours
Protocol: Rabbit eyes were obtained from a rabbit renderer and were dissected within twenty-four (24) hours of the animal's death. The lenses were removed aseptically and cultured in M199 media, 20 mM HEPES, 100 units/ml penicillin, […] streptomycin and 0.1% BSA under 5% CO2 at 37° C. in a humidified incubator for twenty-four hours before the start of treatment. Lens opacification was induced with 20 mM CaCl2, according to the method of Hytower and Dering (Hightower Kr, Dering, M (1984) Invest Ophthalmol Vis Sci 251:108-111). Polyamines were added at a concentration of 100 mM. All experiments were done in triplicate.
Transparency Evaluation: When proteins are modified or oxidized they aggregate, and cause protein solutions to become cloudy or translucent because the proteins lose solubility. The turbidity of a protein solution is a measure of protein aggregation. Turbidity of the lenses after treatment was determined by measuring the increase in protein absorbency. Control (no Ca++), Ca++ and Ca++ with polyamines spermidine, spermine, or putrescine were collected and homogenized in lysis buffer [50 mM Tris-HCl, pH 8.0; 150 mM NaCl, 1% Igepal and protease inhibitor cocktail (Sigma)] after seventy-two (72) hours of treatment. Absorbance was measured at 394 nm for each sample using a spectrophotometer. Transparency was calculated as a function of the percent transmittance according to Jain (Jain Ak, Lim G, Langford M, Jain Sk (2002) Free Radic Biol Med 33:1615-1621).

| Compound | Percent Light Transmittance After Treatments (Average) [%] | Effect on calcium-induced lens opacification (in words) |
| --- | --- | --- |
| NCCCNCCCCNCCCN [Spermine, spermine] | 53 | – |
| NCCCCN [Putrescine, putrescine] | 65.7 | reduce calcium-induced lens opacification |
| NCCCCNCCCN [Spermidine, spermidine] | 56.8 | reduce calcium-induced lens opacification |
